Data on four compounds can be found in US9950071B2, “Hybrid anticancer prodrug simultaneously producing cinnamaldehyde and quinone methide and method for preparing same” (INDUSTRIAL COOPERATION FOUNDATION CHONBUK NATIONAL …, priority 2014, dated 2018).

Data set [1] relates to xenograft mouse model of DU145 and SW620. The data set is described as follows: growth and size of tumor in xenograft model. Format: in vivo. The note with it: for growth inhibition effect of the tumor / size of the tumor: 2 mg/kg through tail vein every 3 days. As for the experimental part:
In order to verify in vivo anticancer activity of the QCA, a tumor in a xenograft model was observed. First, cancer cells were injected to a side hypodermic tissue of mouse by using a xenograft mouse model of DU145 and SW620 and when the tumor after cell transplantation started to be touched small, cinnamaldehyde, Q1, and cinnamaldehyde and Q1, or QCA was administrated by 2 mg/kg though tail vein every 3 days, and then the size of the tumor in the mouse was measured and the result thereof was illustrated in FIG. 17. Further, different amounts of QCA were administrated to the mouse having the tumor and in order to compare the effect thereof, 2 mg/kg of camptotethin (CPT) as an anticancer agent which was commercialized was administrated in other mouse, and then the size of the tumor of the mouse was measured and the result thereof was illustrated in FIG. 18.

The subject of data set [2] is DU145, SW620 and NIH3T3 cells. The data set is described as follows: cytotoxicity by MTT assay. Format: cell-based. The note with it: 24 hr treatment, various amounts. As for the experimental part:
The cytotoxities of the QCA prepared in Example 1 and the QBCA prepared in Example 2 were measured by an MTT assay. In detail, a prostate cancer cell line DU145, a colorectal cancer cell line SW620, and a fibroblast cell NIH3T3 were inoculated in a 24-well plate with the density of 1×10^5 cells/well, respectively, and cultured for 24 hr to reach up to 90% confluency. The cells were treated with various amounts of QCA, QBCA, Q1, or cinnamaldehyde and cultured for 24 hr. 100 μL of the MTT solution was put each well and the cells were cultured for 4 hr. The generated formazan crystals were dissolved in 200 μL of dimethylsulfoxide. After 10 min of the culture, an absorbance at 570 nm was measured by using a micro plate reader (Biotek Instruments, Winooski, Vt.). A cell survival rate was determined by comparing absorbances of cells in a control group and QCA or QBCA-treated cells, and the results were illustrated in FIGS. 9 and 10.

The next data set has as its system SW620 tumor mouse model. The data set is described as follows: histologic examination of tumor (H&E and TUNEL staining). Format: in vivo. The following applies: 21 days, once per three days. The method, then: In order to verify the apoptosis induced by the QCA, in a SW620 tumor mouse model, H&E staining of the tumor was performed after administrating cinnamaldehyde, Q1, the cinnamaldehyde and the Q1, or QCA for 21 days once per three days, and the result thereof was illustrated in FIG. 20. Further, terminal deoxynucleotidyl transferase dUTP nick end labeling (TUNEL) staining of the tumor was performed by the same method, and the result thereof was illustrated in FIG. 21.

Another data set deals with fibroblast cell NIH3T3. The data set is described as follows: cell GSH level (Ellman's reagent). Format: cell-based. The note with it: NIH3T3, 1.5 hr at 37° C., compared with untreated cells. The method, then: (§1) A prostate cancer cell line DU145, a colorectal cancer cell line SW620, and a fibroblast cell NIH3T3 were inoculated in a 6-well plate (5×10^5/well) to reach 80% confluency. The cell lines were treated with various compounds for 1.5 hr at 37° C. and then, cells were obtained and washed with PBS. Thereafter, the cells were lysed in ice in 40 μL of a Triton X-100 lysis buffer solution. After 20 min, the lysate was centrifuged with 9,000 g and 10 μL of a supernatant was mixed with 50 μL of an Ellman's reagent (0.5 mM DTNB). The amount of GSH was quantified by measuring an absorbance at 405 nm using a microplate reader (Biotek Instruments, Winooski, Vt.). In the treated cells, a percentage of the GSH content was compared with the base GSH content measured in untreated cells, and the result was illustrated in FIG. 7.
Background: In Ellman's method for cholinesterases, released thiocholine reacts with DTNB.

Data set [3] concerns colorectal cancer cell line SW620. The data set is described as follows: cell GSH level (Ellman's reagent). The data set is classed as cell-based. As for the experimental part: as §1
For data set [4], the system named is prostate cancer cell line DU145. The data set is described as follows: cell GSH level (Ellman's reagent). The data set is classed as cell-based. As for the experimental part:
as §1

Data set [5] relates to procaspase-3 and PARP-1 in SW620 cells. The data set is described as follows: immunoblot analysis. Format: cell-based. The note with it: SW620, 8 hr, various concentrations. The method, then:
(§2) The prostate cancer cell line DU145 and the colorectal cancer cell line SW620 (1×10^6/well) were treated with cinnamaldehyde or QCA for 8 hr at various concentrations and washed with new PBS twice. Proteins were extracted from the cells by using a lysis buffer solution. Electrophoresis was performed by using […] of a cell lysate in a […] and the proteins were transferred to a PVDF membrane (Millipore, Billerica, Mass.). A blot was cultured together with a PARP monoclonal antibody (Santa Cruz Biotechnology, Dallas, Tex.) or caspase-3 (Santa Cruz Biotechnology, Dallas, Tex.) and a HRP-coupled anti-goat antibody (Millipore, Billerica, Mass.) was used as a secondary antibody. An immunoblot signal was verified by using a chemiluminescent reagent (Pierce, Rockford, Ill.) of SuperSignal Ultra and the result thereof was illustrated in FIGS. 11 and 12.
In general terms: Immunoblotting shows a protein as a band on a membrane.

Data set [6] has as its system procaspase-3 and PARP-1 in DU145 cells. The data set is described as follows: immunoblot analysis. Format: cell-based. The following applies: DU145, 8 hr, various concentrations. The method, then:
as §2

Data set [7] concerns prostate cancer cell line DU145. The data set is described as follows: generation of reactive oxygen species by flow cytometry (DCFH-DA). The data set is classed as cell-based. The following applies: DU145, treated 12 hr, compared with cinnamaldehyde. As for the experimental part: The prostate cancer cell line DU145 (4×10^5) was inoculated in a 24-well culture plate and cultured for 24 hr, and treated with cinnamaldehyde or QCA for 12 hr. Cells were washed with a new medium twice and resuspended in a 1× binding buffer at a concentration of 1×10^5 cells/mL. 100 μL of the cell suspension was transferred to 5 mL of a culture tube and added with 5 μM of 2′,7′-dichlorofluorescein diacetate (DCFH-DA) and softly mixed. The cells were dark-cultured for 15 min at room temperature and added with 400 μL of the 1× binding buffer. The stained cells were measured by using a flow cytometry (FACS Caliber, Becton Dickinson, San Jose, Calif.) and the result was illustrated in FIG. 8. A total of 1.5×10^4 cells per sample were analyzed.
Background: A flow cytometer gives signals particle by particle.

The test system of data set [8] is SW620 cells. The data set is described as follows: DNA fragmentation assay (electrophoresis). Format: cell-based. As for the experimental part: In order to verify an effect of the QCA on the DNA fragments, a DNA fragmentation assay of SW620 was performed. First, the DU145 and SW620 cells were cultured for 24 hr and then treated with 100 μm of cinnamaldehyde, 100 μm of Q1 (4-(1,3,2-dioxaborinan-2-yl)benzyl carbonate, and generating only quinone methide), and 25 μm, 50 μm, 100 μm of the QCA to isolate the DNA and the fragmentation of the nucleosomal DNA was observed by electrophoresis, and the result thereof was illustrated in FIG. 13.
Further, hereinabove, the DNA fragments of the SW620 treated with 100 μm of the QCA were analyzed over time and the result thereof was illustrated in FIG. 14.

Data set [9] is described as follows: toxicity of QCA: ALT evaluation and H&E staining of liver and heart. The data set is classed as in vivo. The note with it: 2 mg/kg, 10 days, once per 2 days. The method, then: In order to verify the stability of the QCA, after 2 mg/kg of the QCA was injected to the mouse for 10 days once per 2 days, alanine transaminase (ALT) evaluation and H&E staining of the liver and heart tissues were performed, and the result thereof was illustrated in FIGS. 24 and 25.

For a further data set, the system named is liver and heart tissues. The data set is described as follows: organ damage, H&E and TUNEL staining of liver and heart tissues. The data set is classed as in vivo, mouse. The note with it: 21 days, once per three days.
Data set [10] is described as follows: QCA structure after hydrolysis in tumor environment (1H NMR). Format: physicochemical. As for the experimental part: In a tumor environment, in order to verify a structure of the QCA triggered by double stimulus, the QCA was cultured for 24 hr at pH 5.5 and verified through ^1H NMR and the structure of the QCA was illustrated in FIG. 5.
The test system of the next data set is tumor lysate. The data set is described as follows: tumor lysate analysis by LC-MS (generation of QM and cinnamaldehyde). The data set is classed as in vivo, mouse. The method, then: In the tumor, in order to verify whether to generate the QM and the cinnamaldehyde in the tumor, a tumor lysate was analyzed by LC-MS after 22 days and the result thereof was illustrated in FIG. 19.

In another data set the test system is DU145 cells. The data set is described as follows: flow cytometry with Annexin V-FITC and propidium iodide. Format: cell-based. The following applies: DU145, treated 24 hr, compared with cinnamaldehyde and Q1. As for the experimental part:
(§3) Further, in order to support the result of the DNA fragmentation assay, the DU145 and SW620 cells were cultured for 24 hr and treated with cinnamaldehyde, Q1 or QCA for 24 hr and then flow cytometry was performed by using Annexin V-FITC as a marker of apoptosis and propidium iodide (PI) as a marker for […], and the result was illustrated in FIGS. 15 and 16.

The subject of data set [11] is SW620 cells. The data set is described as above. The data set is classed as cell-based. The following applies: SW620, treated 24 hr, compared with cinnamaldehyde and Q1. As for the experimental part: as §3
The conditions of data set [12]: in vivo; cited from earlier work.

As for “4-(1,3,2-dioxaborinan-2-yl)benzyl carbonate [Example Q1, reference compound]”, the “growth inhibition effect of the tumor / size of the tumor” value in data set [1] was “slight”.

In the case of `CC1(COC(=O)OCc2ccc(B3OCCCO3)cc2)COC(/C=C/c2ccccc2OC(=O)c2ccccc2)OC1` (stereo not shown) [QBCA, 4-(1,3,2-dioxaborinan-2-yl)benzyl ((5-methyl-2-(2-benzoyloxyphenyl)vinyl-1,3-dioxan-5-yl)methyl)carbonate], in data set [2], the “cytotoxicity (cell survival rate, MTT)” value was “increased according to a concentration”.

On to `CC1(COC(=O)OCc2ccc(B3OCCCO3)cc2)COC(/C=C/c2ccccc2)OC1` (stereo not shown) [QCA, 4-(1,3,2-dioxaborinan-2-yl)benzyl ((5-methyl-2-styryl-1,3-dioxan-5-yl)methyl)carbonate], for which the “apoptosis in tumor tissue (H&E, TUNEL)” value in the data set on SW620 tumor mouse model is reported as “apoptosis of no-nuclear cells was widely shown”. In addition, the GSH level result in the data set on fibroblast cell NIH3T3 is “no effect”; in data set [3] (SW620, 1.5 hr at 37° C., compared with untreated cells), “significantly reduced in a dose-dependent manner”; in data set [4] (DU145, 1.5 hr at 37° C., compared with untreated cells) it was “significantly reduced in a dose-dependent manner”. In addition, the “GSH level at 50 μM” value in data set [3] (SW620, 50 μM) is reported as “Most of GSH was depleted”; in data set [4] (DU145, 50 μM), “Most of GSH was depleted”. The “further reduction of the GSH at 100 μM” value was “not further observed” in data set [3] (SW620, 100 μM) and “not further observed” in [4] (DU145, 100 μM). For the same compound, the “expression of PARP-1” value in data set [5] and in [6] was “concentration-dependently reduced” each time. Moreover, the “expression of procaspase-3” value in [5] and in data set [6] was “concentration-dependently reduced” throughout. In data set [2], the “cytotoxicity (cell survival rate, MTT)” value is “increased according to a concentration”. In data set [1], the “growth inhibition effect of the tumor / size of the tumor” value is on record as “significantly smaller size of the tumor”. Further, the “anticancer activity (size of the tumor)” value in [1] (QCA 1 mg/kg or less) is given as “a different anticancer activity was not shown”; in [1] (QCA 2 mg/kg, compared with 2 mg/kg CPT), “prominent anticancer activity”. For the same compound, the “apoptosis / cell toxicity by ROS generation (FIG. 8)” value in [7] is given as “much higher cell toxicity than the cinnamaldehyde”. In addition, in the data set with SW620 cells [8] (SW620, 100 μm QCA, over time), the “amount of the DNA fragments over time” value was “gradually increased in a concentration and time-dependent manner”. For the same compound, the “DNA fragments (nucleosomal DNA ladder)” value in the data set on SW620 cells [8] (SW620, QCA 25, 50, 100 μm vs 100 μm cinnamaldehyde and 100 μm Q1) is “more DNA fragments than the cinnamaldehyde and the Q1”. The “evidence of toxicity accumulated in the liver and the heart (H&E)” value in data set [9] is reported as “not observed”. The “serum ALT level compared with the untreated mouse” value in [9] is given as “a little difference”. Besides, the “organ damage (liver and heart, H&E and TUNEL)” value in the data set with liver and heart tissues is reported as “did not induce a particular organ damage”. Besides, the “boronate oxidation and formation of hydroxybenzyl alcohol (1H NMR)” value in data set [10] (H2O2-mediated, peaks 6.9 and 6.4 ppm) is “formation of hydroxybenzyl alcohol and oxidation of H2O2-mediated boronate were verified”. Also, the “release of cinnamaldehyde by acetal bond cleavage (1H NMR)” value in [10] (cultured 24 hr at pH 5.5, aldehyde peak 9.4 ppm) was “cinnamaldehyde generated while an acetal bond was broken”. Further, the “QM and cinnamaldehyde in the liver” value in the data set with tumor lysate (liver, after 22 days) was “not detected”. Also, in the data set on tumor lysate (tumor lysate after 22 days), the “GSH value in tumor lower than the tumor of the untreated mouse” value is given as “up to 38%”. Further, in the data set with tumor lysate (tumor lysate after 22 days, new peak same as cinnamaldehyde treatment), the “generation of cinnamaldehyde in the tumor” value is listed as “cinnamaldehyde was generated”. Further, the “apoptosis (Annexin V / PI)” value was “faster apoptosis than the cinnamaldehyde and Q1-treated cells” with DU145 cells; “faster apoptosis than the cinnamaldehyde and Q1-treated cells” with SW620 cells [11].

`O=CC=Cc1ccccc1` [cinnamaldehyde]: in data set [12], the half-life result is recorded as “less than 1.5 hr”. In addition, the “growth inhibition effect of the tumor / size of the tumor” value in [1] is recorded as “slight”. Also, the “change after culture at neutral pH without H2O2” value in [10] (72 hr, neutral pH, without H2O2) is on record as “any change was not observed”.
